Series [1] has as its system INFα induced pSTAT5 in human PBMC. The series can be described thus: INFα induced pSTAT5 in human PBMC. The note with it: human PBMC, INFα 5000 units/ml; read-out: p-STAT5 IC50. Type of series: cell-based.
Description: Cells were seeded in a round bottom 96-well plate at the concentration of 200,000 cells/well. A 10-point dilution series of test compound (top dose 10 uM, 1:5 dilution) was added to the well using the liquid dispenser (Tecan D300e) and incubated for 1 hour at 37 C. Then human INFα recombinant protein (R&D Systems) was added to the well at the final concentration of 5000 units/ml and incubated for 15 minutes at 37 C. Cell lysates were prepared and analyzed by Phospho STAT3 (Tyr705) cellular kit (Cisbio) or Phospho STAT5 (Tyr693) Kit (Meso Scale Discovery) following manufacturer's protocol.
For calculation of the inhibition rate, the relative pSTAT signal of each well=pSTAT signal of each well−the average pSTAT signal of baseline. The inhibition %=(the average pSTAT signal of INFα treatment wells−the relative of pSTAT signal in each compound containing well)/the average pSTAT signal of INFα treatment wells*100%
Series [2] relates to IL-2-induced pSTAT5 in human PBMC. The series can be described thus: IL-2-induced pSTAT5 in human PBMC. The class given is cell-based. Conditions: IL-2 20 ng/ml. On the procedure: (§1) Fresh Human PBMCs were resuspended in RPMI 1640 medium with 10% FBS. Cells were seeded in a round bottom 96-well plate at the concentration of 200,000 cells/well. A 10-point dilution series of test compound (top dose 10 uM, 1:5 dilution) was added to the well using the liquid dispenser (Tecan D300e) and incubated for 1 hour at 37 C. Then human IL-12 recombinant protein (R&D Systems) was added to the well at the final concentration of 10 ng/ml and incubated for 15 minutes at 37 C. Cell lysates were prepared and analyzed by Phospho STAT4 (Tyr693) Kit (Meso Scale Discovery) following manufacturer's protocol.
(§2) For calculation of the inhibition rate, the relative pSTAT4 signal of each well=pSTAT4 signal of each well−the average pSTAT4 signal of baseline. The inhibition %=(the average pSTAT4 signal of IL-12 treatment wells−the relative of pSTAT4 signal in each compound containing well)/the average pSTAT4 signal of IL-12 treatment wells*100%
(§3) The curve was plotted as the inhibition % (y-axis) vs. compounds concentration (x-axis) and was fitted with log(inhibitor) vs. normalized response—Variable slope by GraphPad Prism7.0. Control is BMS-986165:
(§4) Similar to the method for IL-12 induced pSTAT4 in human PBMC described above, these assays were performed to check if test compounds have cross-activity to JAK1. JAK2 and JAK3 pathways in human PBMC. The procedure is as described with change of stimuli to 10 ng/ml of GM-CSF or 20 ng/ml of IL-2.

Series [3] relates to GM-CSF-induced pSTAT5 in human PBMC. Description: GM-CSF-induced pSTAT5 in human PBMC. The note with it: GM-CSF 10 ng/ml. Type of series: cell-based. Here is the method: as §1, §2, §3, §4
In the next series the target is TYK2 (JH2 domain) (Homo sapiens (Human), UniProt P29597). The series can be described thus: TYK2 JH2 domain binding assay (DiscoverX KINOMEscan). Conditions: 11-point 3-fold dilution, duplicate.
Chain of TYK2 (JH2 domain) (P29597 589-875): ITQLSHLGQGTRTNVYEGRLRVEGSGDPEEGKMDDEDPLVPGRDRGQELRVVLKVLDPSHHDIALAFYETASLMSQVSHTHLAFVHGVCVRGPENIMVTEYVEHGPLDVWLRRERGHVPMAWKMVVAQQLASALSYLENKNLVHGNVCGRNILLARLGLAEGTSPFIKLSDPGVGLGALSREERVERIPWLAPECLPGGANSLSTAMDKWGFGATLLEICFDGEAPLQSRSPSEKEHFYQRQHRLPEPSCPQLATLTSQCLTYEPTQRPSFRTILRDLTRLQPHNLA
The next series has as its target JAK1 (JH2 domain) (Homo sapiens (Human), UniProt P23458). The series can be described thus: JAK1 JH2 domain binding assay (KINOMEscan). The note with it: KINOMEscan; read-out: JAK1 (JH2 domain) binding Kd.
The next series has as its target JAK2 (JH1 domain) (Homo sapiens (Human), UniProt O60674). The series can be described thus: JAK2 JH1 domain binding assay (KINOMEscan).
Series [4] in a line: Pharmacokinetic study in Sprague Dawley rats. Type of series: in vivo. The note with it: rat, plasma; for Vd: read-out: Vdss. Here is the method:
(§5) The pharmacokinetics of test compounds were evaluated in male C57BL/6 mice, Sprague Dawley rats, Beagle dogs, and cynomolgus monkeys when administered via oral gavage and IV injection. The animals were fasted overnight before administration. Plasma samples were collected predose and at 0.5, 1, 3, 6, 9, 12, and 24 hours postdose. The samples were analyzed by LC/MS/MS and the concentration of test compound at each timepoint was determined by linear regression. Pharmacokinetic parameters were calculated from the plasma concentrations using Pheonix WinNonlin.

A short description of series [5]: Pharmacokinetic study in Beagle dogs. The class given is in vivo. Conditions: dog, plasma; for Vd: read-out: Vdss. Here is the method:
as §5

Series [6] is described as follows: Pharmacokinetic study in cynomolgus monkeys. Conditions: cynomolgus monkey, plasma; for Vd: read-out: Vdss. Type of series: in vivo. Here is the method:
as §5

Setting [7] is: Oral (5 mg/kg), read-out: C0 or Cmax (Cmax).
The mark [8] stands for this setting: iv, I.V. (1 mg/kg), read-out: C0 or Cmax (C0).
The mark [9] stands for this setting: Oral (2 mg/kg), read-out: C0 or Cmax (Cmax).
Setting [10] is: Oral (2 mg/kg), NA: no detectable.
Where [11] appears, read: intravenous, printed on the Oral (2 mg/kg) line (probably belongs to I.V. 1 mg/kg).

Chain of JAK1 (JH2 domain) (P23458 583-855): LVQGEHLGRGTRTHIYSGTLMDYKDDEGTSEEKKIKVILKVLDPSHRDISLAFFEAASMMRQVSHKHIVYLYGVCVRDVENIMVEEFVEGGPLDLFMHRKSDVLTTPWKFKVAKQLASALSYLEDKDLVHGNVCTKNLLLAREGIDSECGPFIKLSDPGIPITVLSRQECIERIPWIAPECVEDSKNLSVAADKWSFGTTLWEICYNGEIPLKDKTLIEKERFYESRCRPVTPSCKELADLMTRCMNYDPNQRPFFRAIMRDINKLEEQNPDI
Chain of JAK2 (JH1 domain) (O60674 849-1124): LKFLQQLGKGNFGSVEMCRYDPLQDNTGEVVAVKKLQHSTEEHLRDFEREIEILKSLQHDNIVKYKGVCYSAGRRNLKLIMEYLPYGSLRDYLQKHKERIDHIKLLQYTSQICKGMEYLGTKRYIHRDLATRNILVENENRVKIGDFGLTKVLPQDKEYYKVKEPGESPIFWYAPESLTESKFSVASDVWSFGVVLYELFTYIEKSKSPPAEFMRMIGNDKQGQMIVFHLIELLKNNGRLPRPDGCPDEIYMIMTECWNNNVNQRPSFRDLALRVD
Description for JAK2 (JH1 domain): The assay is performed by combining three components: DNA-tagged kinase; immobilized ligand; and a test compound. The ability of the test compound to compete with the immobilized ligand is measured via quantitative PCR of the DNA tag.
The liganded beads were blocked with excess biotin and washed with blocking buffer (SeaBlock (Pierce), 1% BSA, 0.05% Tween 20, 1 mM DTT) to remove unbound ligand and to reduce non-specific binding. […] Test compounds were prepared as 111× stocks in 100% DMSO. All test compounds were shipped to DiscoverX in DMSO with concentration of 10 mM. Kds were determined using an 11-point 3-fold compound dilution series with three DMSO control points. Each compound was tested in duplicate. […] The compounds were then diluted directly into the assays such that the final concentration of DMSO was 0.9%. All reactions performed in polypropylene 384-well plate. Each was a final volume of 0.02 ml. […] The kinase concentration in the eluates was measured by qPCR.
The amount of kinase measured by qPCR (Signal; y-axis) is plotted against the corresponding compound concentration in nM in log 10 scale (x-axis). Binding constants (Kds) were calculated with a standard dose-response curve using the Hill equation:
Similar to the method for TYK2 JH2 binding described above, JAK1 JH2 and JAK2 JH1 domain binding assay was performed using DiscoverX's KINOMEscan™, but with change of kinase domain.

Regarding `[2H]C([2H])([2H])CC(=O)c1cnc(Nc2cccc(C#N)n2)cc1Nc1nccc(-c2ncn(C([2H])([2H])[2H])n2)c1OC` [Example 199], the IC50 in series [1] is under 100 nM; in series [2], 100 to 1000 nM; in [3], 1000 to 10000 nM. The equilibrium dissociation constant (Kd) at TYK2 (JH2 domain) is at most 1 nM; at JAK1 (JH2 domain) it was under 100 nM; on JAK2 (JH1 domain) it was over 10000 nM. The AUC in series [4] (Oral (5 mg/kg)) is 650 ± 34 ng·h/mL; in [4] (iv, I.V. (1 mg/kg)) it was 705 ± 140 ng·h/mL; in series [5] (Oral (2 mg/kg)), 67.6 ± 25 ng·h/mL; in series [5] (iv, I.V. (1 mg/kg)), 315 ± 188 ng·h/mL. In addition, the values for the Tmax in series [4] (Oral (5 mg/kg)) and in [5] (Oral (2 mg/kg)) were 1.33 ± 0.58 h and 1.33 ± 0.6 h, respectively. Further, the bioavailability in series [4] (Oral (5 mg/kg)) came out at 18.4 ± 1%; in series [5] (Oral (2 mg/kg)), 10.7 ± 3.9%. For the same molecule, the half-life in series [4] (Oral (5 mg/kg)) is 1.66 ± 0.37 h; in series [4] (iv, I.V. (1 mg/kg)) it was 1.74 ± 0.2 h; in series [5] (Oral (2 mg/kg)), 1.36 ± 0.05 h; in [5] (iv, I.V. (1 mg/kg)), 1.78 ± 0.59 h. The Cmax was 140 ± 32 ng/mL in series [4] (setting [7]), 414 ± 56 ng/mL in series [4] (setting [8]), 23.4 ± 4 ng/mL in series [5] (setting [9]) and 334 ± 96 ng/mL in series [5] (setting [8]). In addition, the clearance in [4] (iv, I.V. (1 mg/kg)) stood at 23.3 ± 4.9 mL/min/kg; in series [5] (iv, I.V. (1 mg/kg)), 63.2 ± 30 mL/min/kg. Also, the Vd in [4] (iv, I.V. (1 mg/kg)) stood at 3.27 ± 0.87 L/kg; in series [5] (iv, I.V. (1 mg/kg)) it was 5.62 ± 1.13 L/kg.

On to `[2H]C([2H])([2H])CC(=O)c1cnc(Nc2ccc(C(C)(C)O)c(F)n2)cc1Nc1nccc(-c2ncn(C([2H])([2H])[2H])n2)c1OC` [Example 201], for which the IC50 in [1] was under 100 nM; in [2] it was 100 to 1000 nM; in series [3], 100 to 1000 nM. For the same molecule, the dissociation constant (Kd) is at most 1 nM at TYK2 (JH2 domain), under 100 nM at JAK1 (JH2 domain) and 100 to 1000 nM on JAK2 (JH1 domain). The AUC came to 67.9 ± 21 ng·h/mL in series [6] (setting [10]); 726 ± 134 ng·h/mL in [6] (iv, I.V. (1 mg/kg)); 499 ± 502 ng·h/mL in series [4] (Oral (5 mg/kg)); 533 ± 225 ng·h/mL in series [4] (iv, I.V. (1 mg/kg)); 442 ± 81 ng·h/mL in series [5] (Oral (2 mg/kg)); 575 ± 158 ng·h/mL in series [5] (iv, I.V. (1 mg/kg)). The time of peak concentration (Tmax) was determined as 2.33 ± 1.5 h in series [6] (setting [10]), 0.42 ± 0.14 h in [4] (Oral (5 mg/kg)) and 2 h in series [5] (Oral (2 mg/kg)). The figures for the bioavailability in series [6] (setting [10]), in series [4] (Oral (5 mg/kg)) and in series [5] (Oral (2 mg/kg)) were 4.67 ± 1.5%, 18.7 ± 18.9% and 38.5 ± 7.1%, respectively. Further, the half-life in [6] (setting [10]) is 3.08 ± 0.66 h; in series [6] (iv, I.V. (1 mg/kg)), 1.81 ± 0.76 h; in series [4] (Oral (5 mg/kg)) it was 1.14 ± 0.2 h; in series [4] (iv, I.V. (1 mg/kg)), 0.759 ± 0.6 h; in series [5] (Oral (2 mg/kg)), 5.05 ± 0.47 h; in series [5] (iv, I.V. (1 mg/kg)), 4.54 ± 1.26 h. For the same molecule, the highest concentration (Cmax) in series [6] (Oral (2 mg/kg), NA: no detectable, read-out: C0 or Cmax (Cmax)) turned out to be 13.9 ± 2 ng/mL; in series [6] (setting [8]) it was 849 ± 50 ng/mL; in series [4] (setting [7]) it was 185 ± 138 ng/mL; in [4] (setting [8]) it was 1190 ± 116 ng/mL; in series [5] (setting [9]), 103 ± 28 ng/mL; in series [5] (setting [8]), 458 ± 336 ng/mL. In addition, the clearance in series [6] (setting [11]) came to 23.2 ± 4.3 mL/min/kg; in [4] (iv, I.V. (1 mg/kg)) it was 34.3 ± 12 mL/min/kg; in series [5] (iv, I.V. (1 mg/kg)), 29.3 ± 8.01 mL/min/kg. The Vd turned out to be 1.47 ± 0.1 L/kg in [6] (setting [11]); 1.31 ± 0.42 L/kg in series [4] (iv, I.V. (1 mg/kg)); 7.41 ± 2.64 L/kg in series [5] (iv, I.V. (1 mg/kg)).

Turning to `[2H]C([2H])([2H])CC(=O)c1cnc(Nc2ccc(C(O)(C([2H])([2H])[2H])C([2H])([2H])[2H])c(F)n2)cc1Nc1ncccc1S(C)(=O)=O` [Example 203], the IC50 in series [1] was under 100 nM. This molecule also yielded an IC50 in [2] of 100 to 1000 nM. This molecule showed an IC50 in series [3] of 1000 to 10000 nM. In [6] (iv, I.V. (1 mg/kg)), the exposure (AUC) was 595 ± 48 ng·h/mL, the clearance is 27.6 ± 1.9 mL/min/kg, the half-life is 0.951 ± 0.22 h and the Vd worked out at 0.931 ± 0.01 L/kg. In series [6] (setting [8]), the peak concentration (Cmax) was determined as 787 ± 61 ng/mL.

By IC50 is commonly meant the concentration needed to halve the response being measured. For orientation: Kd means the concentration at which binding is half-saturated. One may read the AUC as the area under the concentration-time curve, a measure of exposure. A lower AUC goes with less exposure. As usually defined, the Tmax is the time from dosing to the highest level. As usually defined, the bioavailability is the share of a dose that reaches the circulation, judged against a reference dose that is usually intravenous. A higher bioavailability goes with good availability. The term half-life denotes the time in which the quantity being followed falls by half. A low value points to fast loss. By Cmax is commonly meant the maximum level reached in the sampled fluid or tissue.

Source of the values: patent publication US11053219B2, “Substituted pyridines as TYK2 inhibitors” (FronThera U.S. Pharmaceuticals LLC, priority 2018, dated 2021).
